The values that follow come from patent US20030171420A1, “Compounds and compositions for use in ingibting endoparasitic fatty acid biosynthesis” (priority 2000, published 2003).

Assay [1] has as its system Plasmodium falciparum. Description: Plasmodium falciparum growth inhibition in human red blood cells (parasite lactate dehydrogenase assay). Conditions: for IC50: Plasmodium falciparum, Erythrocyte, at 48 hours, P. falciparum in human red blood cells, read-out: 50% inhibitory concentration (IC50) for parasite growth. In kind it is cell-based. As to the method:
Plasmodium falciparum was maintained in human red blood cells and the inhibitory effects of racemic thiolactomycin, or compound C on its growth was measured, employing assay techniques as described by Makkler, M. T., Ries, J. M., Williams, J. A., Bancroft, J. E., Piper, R. C., Gibbins, B. L. and Hinrichs, D. J., Parasite lactate dehydrogenase as an assay for Plasmodium falciparum drug sensitivity. Am. J. Trop. Med. Hyg. 48, 739-41 (1993).

Assay [2] has as its system Eimeria tenella parasites. Description: Eimeria tenella uracil uptake in infected MDBK cells. The format is cell-based. Particulars: uracil uptake as indicator of parasite viability. How it is done:
(§1) Compound C was tested against Eimeria tenella parasites in two separate assay procedures, as described (i) in Inhibition of the development of Eimeria tenella in cultured bovine kidney cells by a soluble factor produced by peripheral blood lymphocytes from immune chickens, J. M. Bumstead, S. J. Topham, F. M. Tomley, Parasitology, 117.39-47 (1998) and (ii) Eimeria tenella: Parasite-specific incorporation of 3H Uracil as a quantitative measure of intracellular development, Schmatz, D. M., Crane, M. S., is Murray, P. K., Journal of Protozology (1986) 33:109-114.
In the second assay using infected MDBK cells, compound C caused a significant decrease in the uptake of uracil by the parasites (a recognised indicator of parasite viability) at concentrations greater than 5 μM.

Assay [3] relates to Eimeria tenella parasites. Briefly: Eimeria tenella invasion of MDBK cells after preincubation of parasites with compound. In kind it is cell-based. As to the method:
as §1
Preincubation of compound C with parasites caused a significant reduction in invasion of Madin-Darby Bovine Kidney (MDBK) cells at concentrations of 10 μM and above.

Assay [4] concerns fatty acid synthesis in Trypanosoma brucei. Particulars: Morita et al., Science 288: 140-143 (2000); read-out: IC50 for inhibition of fatty acid synthesis in Trypanosoma brucei; cited from earlier work.

The structures appear in SMILES notation.

Consider `CC(C)=CCC/C(C)=C/CC1(C)SC(=O)C(C)=C1O` (stereo not drawn) [Compound C], for which the IC50 in assay [1] was determined as 0.5 µM. Further, in assay [1] (ratio of IC50 values at 48 hours), the “times more active than racemic thiolactomycin in inhibiting growth of Plasmodium falciparum” value is on record as “approximately 80 times”. In addition, the “concentrations causing a significant decrease in the uptake of uracil by the parasites” value in assay [2] is “greater than 5 μM”. The “concentrations causing a significant reduction in invasion of Madin-Darby Bovine Kidney (MDBK) cells” value in assay [3] is at least 10 µM.
Take `C=C/C(C)=C/C1(C)SC(=O)C(C)=C1O` (racemic) [Racemic thiolactomycin, Thiolactomycin, reference compound]: the IC50 in assay [1] was 40 µM; in assay [4] it was around 150 µM.
